According to patent US8124582B2, “Treatment of diabetes” (FibroGen, Inc., priority 2002, dated 2012):

How the values were obtained:
[1] = Intra-Peritoneal Glucose Tolerance Test in diet-induced Type 2 diabetes model; format: in vivo, male C57BL/6J mice; settings: 75 mg/kg/day oral gavage, 14 days
Procedure: C57B1/6J mice fed a high-fat diet develop severe obesity, hyperglycemia, and hyperinsulinemia, and are a model of diet-induced obesity, Type 2 diabetes, and impaired glucose tolerance. Forty male C57BL/6J mice obtained from The Jackson Laboratory (Bar Harbor Me.) were divided into the following experimental groups: Group 1: vehicle control animals fed standard mouse chow (n=10); Group 2: animals fed standard mouse chow and administered 75 mg/kg/day compound E by oral gavage (n=10); Group 3: vehicle control animals fed high-fat mouse chow (45% fat from Research Diets) (n=10); Group 4: animals fed high-fat mouse chow and administered 75 mg/kg/day compound E by oral gavage (n=10). The feeding regimen was continued for 14 days with daily measurement of body weight and food consumption. Animals were then fasted for 4 hours prior to an Intra-Peritoneal Glucose Tolerance Test (IPGTT) using a glucose load of 2 g glucose/kg body weight. Blood samples were taken for determination of blood glucose levels at 0, 15, 30, 60, and 90 minutes following glucose administration.

[2] = Body weight gain, abdominal fat pad and organ weight in diet-induced obesity model; format: in vivo, male C57BL/6J mice; settings: C57BL/6J mice, 75 mg/kg/day oral gavage, 28 days; for abdominal fat pad weight on high-fat diet: FIG. 9B; for organ weights of kidney, liver, and heart between experimental groups: FIG. 9C; for body weight gain on high-fat diet vs untreated high-fat diet: p<0.05, FIG. 9A
Source text: C57B1/6J mice fed a high-fat diet develop severe obesity, hyperglycemia, and hyperinsulinemia, and are a model of diet-induced obesity, Type 2 diabetes, and impaired glucose tolerance. Forty male C57BL/6J mice obtained from The Jackson Laboratory (Bar Harbor Me.) were divided into the following experimental groups: Group 1: vehicle control animals fed standard mouse chow (n=10); Group 2: vehicle control animals fed high-fat mouse chow (45% fat from Research Diets) (n=10); Group 3: animals fed high-fat mouse chow and administered 75 mg/kg/day compound E by oral gavage (n=10); Group 4: animals fed high-fat mouse chow and administered 75 mg/kg/day compound A by oral gavage (n=10). The feeding regimen was continued for 28 days with weekly measurement of body weight. Animals were then sacrificed and their organs and fat pads were harvested and weighed.

HIF-1α = HIF-1α stabilization in cells, TRANSAM HIF-1 ELISA of nuclear fractions; format: cell-based, Human; settings: epithelial cells (293A) and hepatocellular carcinoma (Hep3B); FIG. 12B
Procedure: Stabilization of HIFα using compounds and methods of the present invention was examined as follows. Human cells derived from adenovirus-transformed fetal kidney epithelium (293A), cervical epithelial adenocarcinoma (HeLa), hepatocellular carcinoma (Hep3B), squamous carcinoma (SSC-25), and lung fibroblast (HLF) (see, e.g., American Type Culture Collection, Manassas Va.; and Qbiogene, Carlsbad Calif.) were separately seeded into 100 mm culture dishes and grown at 37° C., 20% O2, 10% CO2 in media as follows: HeLa cells in Dulbecco's Modification of Eagle's Medium (DMEM), 2% fetal bovine serum (FBS); HLF cells in DMEM, 10%FBS; 293A cells in DMEM, 5%FBS; and Hep3B cells in Minimal Essential Medium (MEM), Earle's BSS (Mediatech Inc., Herndon Va.), 2 mM L-glutamine, 0.1 mM non-essential amino acids, 1 mM sodium pyruvate, 10% FBS. When cell layers reached confluence, the media was replaced with OPTI-MEM media (Invitrogen Life Technologies, Carlsbad Calif.) and cell layers were incubated for approximately 24 hours in 20% O2, 10% CO2 at 37° C. Compound of the invention (one of compounds B, F, G, and H) or DMSO (0.5 to 1%) was then added to existing medium, and incubation was continued overnight.
Alternatively, nuclear fractions were prepared using a Nuclear Extract kit (Active Motif, Carlsbad Calif.) and were analyzed for HIF-1α using a TRANSAM HIF-1 ELISA kit (Active Motif) according to the manufacturer's instructions.

[3] = Serum triglyceride levels in db/db mice; format: in vivo, male db/db mice; settings: 0.5 mg/ml in drinking water, 8 weeks
Source text: The effect of compound administration on triglyceride levels was examined using a mouse model of diabetes as follows: Twenty male db/db mice (Harlan, Indianapolis, Ind.), which carry a homozygous loss-of-function mutation in the leptin receptor, were used for this study. Triglycerdide levels are typically elevated 1.5-2 times in db/db mice compared to that in normal mice. (Nishina et al (1994) Metabolism 43:549-553.) Triglyceride levels in db/db mice progressively increase with age. (Tuman and Doisy (1977) Diabetologia 13:7-11.) Mice received drinking water containing either vehicle (100 μM histidine) or compound A (0.5 mg/ml in 100 μM histidine) for a period of 8 weeks. At the termination of the study, animals were fasted overnight and blood samples were taken from the caudal vena cava under general anesthesia and placed in serum separator tubes. Blood samples were sent to Quality Clinical Labs (Mountain View, Calif.) for analysis.

[4] = Glycated hemoglobin (HbA1c) in db/db mice; format: in vivo, male db/db mice; settings: 0.5 mg/ml in drinking water
Procedure: The effect of compound administration on glycated hemoglobin levels was examined using a mouse model of diabetes as follows. Twenty male db/db mice (Harlan) received drinking water containing either vehicle (100 μM histidine) or compound A (0.5 mg/ml) for a period of 8 weeks. Prior to study initiation and at weeks 4 and 8 following treatment, blood samples were collected from the tail vein and HbA1c levels were measured using an HbA1cNOW kit (Metrika Inc., Sunnyvale Calif.).

GluT-1 = GluT-1 protein levels in H9c2 cells (Western blot); format: cell-based, rat; settings: H9c2 cells, 5, 10, and 20 μM, 16 hours; FIG. 1B
Procedure: Human SSC-25 (squamous cell carcinoma) or rat H9c2 (ventricular cardiomyocyte) cells were grown to confluence in 100 mm culture dishes at 37° C., 10% CO2 in DMEM with 10% fetal calf serum. Cells were then washed twice with PBS and incubated with vehicle control, compound D (10 and 25 μM), or compound C (5, 10, and 20 μM) for 16 hours. Plates were placed on ice, culture supernatant was removed, and lysis buffer-1 (LB-1: 10 mM Tris pH 7.4, 1 mM EDTA, 150 mM sodium chloride, 0.5% IGEPAL) was added. Cell lysates were harvested by scraping, incubated for 15 minutes on ice, and then centrifuged at 3000×g for 5 minutes at 4° C. The supernatant, which represents the cytosolic fraction, was collected and cytosolic proteins were separated under reducing conditions using SDS-polyacrylamide gel electrophoresis (SDS-PAGE) with equal amounts of protein loaded per lane.
SDS-PAGE was conducted at 150 V for 2 hours, after which the proteins were transferred to a PVDF membrane at 400 mA for 1.5 hours at 4° C. The membrane was incubated in blocking buffer for 2 hours or overnight and washed once with T-TBS prior to addition of anti-GluT-1 antibody (Alpha Diagnostics) diluted to working concentration in blocking buffer. […]

SMILES | abdominal fat pad weight on high-fat diet [2] | organ weights of kidney, liver, and heart between experimental groups [2] | body weight gain on high-fat diet vs untreated high-fat diet [2] | HIFα stabilization and accumulation (ELISA) compared to vehicle-treated control cells (HIF-1α) | further results
COc1ccc2c(O)c(C(=O)NCC(=O)O)nc(Cl)c2c1 [compound E, [(1-Chloro-4-hydroxy-7-methoxy-isoquinoline-3-carbonyl)-amino]-acetic acid] | essentially the same fat pad weight as animals fed a normal diet | not different | significantly less weight gain | – | glucose clearance rate in IPGTT, treated high-fat diet mice (RxHF) vs mice on standard chow ([1]; 2 g glucose/kg, FIG. 5A): substantially the same; glucose AUC in IPGTT, treated mice (RxChow, RxHF) vs standard chow without compound (VeChow) ([1]; FIG. 5B): no statistical difference; glucose AUC in IPGTT, high-fat chow without compound (VeHF) vs high-fat chow treated (RxHF) ([1]; t-test, p<0.05, FIG. 5B): statistically significant difference
O=C(O)CNC(=O)c1ncccc1O [compound G, [(3-Hydroxy-pyridine-2-carbonyl)-amino]-acetic acid] | – | – | – | stabilization and accumulation of HIFα | –
CC(C)Oc1ccc2nc(C(=O)NCC(=O)O)c(O)cc2c1 [compound F, [(3-Hydroxy-6-isopropoxy-quinoline-2-carbonyl)-amino]-acetic acid] | – | – | – | stabilization and accumulation of HIFα | –
O=C(O)CNC(=O)c1nc2cc(Cl)ccc2cc1O [compound A, [(7-Chloro-3-hydroxy-quinoline-2-carbonyl)-amino]-acetic acid] | essentially the same fat pad weight as animals fed a normal diet | not different | significantly less weight gain | – | triglyceride level vs controls [3]: significantly lower than controls; triglyceride level ([3]; fasted overnight, control approximately 120 mg/dL, FIG. 11): approximately 85 mg/dL; HbA1c levels at week 8 vs non-treated [4]: significantly lower; HbA1c levels at week 8 ([4]; 8 weeks, control rose from about 7.5% to about 10%, FIG. 6): about 7.5%; HbA1c levels over time ([4]; weeks 0 to 8): did not increase over time
COC(=O)CNC(=O)c1nc(Cl)c2cc(OCc3ccccc3)ccc2c1O [compound H, [(7-Benzyloxy-1-chloro-4-hydroxy-isoquinoline-3-carbonyl)-amino]-acetic acid methyl ester] | – | – | – | stabilization and accumulation of HIFα | –
O=C(O)CNC(=O)c1ncc2cc(Oc3ccccc3)ccc2c1O [compound C, [(4-Hydroxy-7-phenoxy-isoquinoline-3-carbonyl)-amino]-acetic acid] | – | – | – | – | protein levels of GluT-1 (GluT-1): increased
